Assay results published in ChEMBL document CHEMBL1201862, “PubChem BioAssay data set” (2004).
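Tested at 5 concentrations; 48 h exposure; 96-well plates; endpoints linearly interpolated, else capped at highest concentration. The concentration for 50% growth inhibition is given as GI50.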 The source made the active and inactive calls. Rule as the data show it: active = GI50 up to about 1.1 µM and inactive = higher.

How the values were obtained:
Experiment in all cases: growth of human tumour cells (NCI), 48 h
[1] = system: SK-MEL-28
[2] = system: OVCAR-8
[3] = system: M14
[4] = system: OVCAR-4
[5] = system: NCI-H522
[6] = system: A549
[7] = system: HCC 2998
[8] = system: SW-620
[9] = system: MOLT-4
[10] = system: MCF7
[11] = system: RPMI-8226
[12] = system: OVCAR-3
[13] = system: UACC-62
[14] = system: NCI-H226
[15] = system: ACHN
[16] = system: U-251
[17] = system: IGROV-1
[18] = system: KM12
[19] = system: MDA-N
[20] = system: UO-31

SMILES	GI50 [1]	GI50 [2]	GI50 [3]	GI50 [4]	GI50 [5]	GI50 [6]	GI50 [7]	GI50 [8]	GI50 [9]	GI50 [10]	GI50 [11]	GI50 [12]	GI50 [13]	GI50 [14]	GI50 [15]	GI50 [16]	GI50 [17]	GI50 [18]	GI50 [19]	GI50 [20]
CC(=O)N(CN1C(=O)CCC1C(=O)O)c1ccc(C)cc1 (centres undefined)	> 100 µM (inactive)	> 100 µM (inactive)	> 100 µM (inactive)	> 100 µM (inactive)	> 100 µM (inactive)	> 100 µM (inactive)	> 100 µM (inactive)	> 100 µM (inactive)	> 100 µM (inactive)	> 100 µM (inactive)	> 100 µM (inactive)	> 100 µM (inactive)	> 100 µM (inactive)	> 100 µM (inactive)	> 100 µM (inactive)	> 100 µM (inactive)	> 100 µM (inactive)	> 100 µM (inactive)	> 100 µM (inactive)	> 100 µM (inactive)
CN(C)CCCNC(=O)c1c(-c2cccnc2)cnc2ccccc12	> 100 µM (inactive)	> 100 µM (inactive)	> 100 µM (inactive)	> 100 µM (inactive)	> 100 µM (inactive)	> 100 µM (inactive)	> 100 µM (inactive)	> 100 µM (inactive)	> 100 µM (inactive)	> 100 µM (inactive)	> 100 µM (inactive)	> 100 µM (inactive)	> 100 µM (inactive)	> 100 µM (inactive)	> 100 µM (inactive)	> 100 µM (inactive)	> 100 µM (inactive)	> 10 µM (inactive)	> 100 µM (inactive)	> 100 µM (inactive)
COC(C/C(=C/CO[Si](C(C)C)(C(C)C)C(C)C)C(=O)N(C(=O)OC(C)(C)C)c1ccccc1I)OC	67.3 µM (inactive)	> 100 µM (inactive)	47.2 µM (inactive)	44.6 µM (inactive)	2.77 µM (inactive)	28.8 µM (inactive)	40.6 µM (inactive)	59.3 µM (inactive)	22.9 µM (inactive)	18.7 µM (inactive)	15.2 µM (inactive)	29.2 µM (inactive)	> 100 µM (inactive)	> 100 µM (inactive)	45.9 µM (inactive)	37.6 µM (inactive)	0.0262 µM (active)	41.9 µM (inactive)	26.9 µM (inactive)	42.1 µM (inactive)
Cc1c(F)c(N)c2c(=O)cc(-c3ccc(NC(=O)CN(C)C)c(F)c3)oc2c1F	47.9 µM (inactive)	38.5 µM (inactive)	> 100 µM (inactive)	23.6 µM (inactive)	55.1 µM (inactive)	89.7 µM (inactive)	21.5 µM (inactive)	18.3 µM (inactive)	15.5 µM (inactive)	7.29 µM (inactive)	23.7 µM (inactive)	0.0456 µM (active)	26.4 µM (inactive)	11 µM (inactive)	> 100 µM (inactive)	24.8 µM (inactive)	38 µM (inactive)	32 µM (inactive)	> 100 µM (inactive)	86.1 µM (inactive)
CCOC(=O)CC[C@H](N)C(=O)N[C@H](Cc1ccc(N(CCCl)CCCl)cc1)C(=O)OCC	25.8 µM (inactive)	2.97 µM (inactive)	1.42 µM (inactive)	5.18 µM (inactive)	1.41 µM (inactive)	3.54 µM (inactive)	1.2 µM (inactive)	3.56 µM (inactive)	1.18 µM (inactive)	1.21 µM (inactive)	7.06 µM (inactive)	3.59 µM (inactive)	1.51 µM (inactive)	7.76 µM (inactive)	0.0706 µM (active)	6.47 µM (inactive)	2.71 µM (inactive)	3.32 µM (inactive)	16.1 µM (inactive)	0.419 µM (active)
CCCCC(=O)NC1(c2cc3ccccc3s2)CCCCC1	> 100 µM (inactive)	80.4 µM (inactive)	> 100 µM (inactive)	> 100 µM (inactive)	> 100 µM (inactive)	> 100 µM (inactive)	> 100 µM (inactive)	> 100 µM (inactive)	–	85.9 µM (inactive)	8.81 µM (inactive)	> 100 µM (inactive)	62.1 µM (inactive)	> 100 µM (inactive)	> 100 µM (inactive)	> 100 µM (inactive)	> 100 µM (inactive)	> 100 µM (inactive)	> 100 µM (inactive)	> 100 µM (inactive)
C=C1CC2C[C@H](OS(=O)(=O)c3ccc(C)cc3)C(C1)N2C (some centres undefined)	> 100 µM (inactive)	> 100 µM (inactive)	> 100 µM (inactive)	> 100 µM (inactive)	> 100 µM (inactive)	> 100 µM (inactive)	> 100 µM (inactive)	> 100 µM (inactive)	> 100 µM (inactive)	> 100 µM (inactive)	> 100 µM (inactive)	> 100 µM (inactive)	> 100 µM (inactive)	> 100 µM (inactive)	–	> 100 µM (inactive)	> 100 µM (inactive)	> 100 µM (inactive)	> 100 µM (inactive)	> 100 µM (inactive)
O=C1CC(c2ccccc2)C2(C(=O)NC(=S)NC2=O)C(c2ccccc2)C1 (centres undefined)	> 75 µM (inactive)	> 75 µM (inactive)	> 75 µM (inactive)	> 75 µM (inactive)	> 75 µM (inactive)	–	> 75 µM (inactive)	> 75 µM (inactive)	27.3 µM (inactive)	> 75 µM (inactive)	38.7 µM (inactive)	> 75 µM (inactive)	> 75 µM (inactive)	> 75 µM (inactive)	> 75 µM (inactive)	> 75 µM (inactive)	> 75 µM (inactive)	> 75 µM (inactive)	> 75 µM (inactive)	> 75 µM (inactive)
COc1ccc(N2C(=O)CC(=O)N(C(=O)CCCCCCCCC(=O)N3C(=O)CC(=O)N(c4ccc(OC)cc4)C3=S)C2=S)cc1	> 100 µM (inactive)	> 100 µM (inactive)	> 100 µM (inactive)	> 100 µM (inactive)	65.2 µM (inactive)	> 100 µM (inactive)	> 100 µM (inactive)	> 100 µM (inactive)	54.3 µM (inactive)	> 100 µM (inactive)	44 µM (inactive)	> 100 µM (inactive)	> 100 µM (inactive)	> 100 µM (inactive)	> 100 µM (inactive)	> 100 µM (inactive)	–	79.6 µM (inactive)	57.4 µM (inactive)	79.6 µM (inactive)
N=c1oc2ccc([N+](=O)[O-])cc2cc1C(=O)Nc1ccccn1	28.8 µM (inactive)	92.3 µM (inactive)	36.8 µM (inactive)	90.8 µM (inactive)	24.5 µM (inactive)	> 100 µM (inactive)	91.4 µM (inactive)	70.3 µM (inactive)	> 100 µM (inactive)	12.2 µM (inactive)	54.2 µM (inactive)	20.6 µM (inactive)	34.2 µM (inactive)	71.9 µM (inactive)	35.5 µM (inactive)	45.5 µM (inactive)	31.7 µM (inactive)	34.3 µM (inactive)	49.2 µM (inactive)	–
CC(C)=CC(C)C(C(O)CCC1(c2ccoc2)OCCO1)S(=O)(=O)c1ccccc1 (centres undefined)	> 100 µM (inactive)	> 100 µM (inactive)	> 100 µM (inactive)	> 100 µM (inactive)	> 100 µM (inactive)	> 100 µM (inactive)	> 100 µM (inactive)	> 100 µM (inactive)	–	> 100 µM (inactive)	> 100 µM (inactive)	> 100 µM (inactive)	–	> 100 µM (inactive)	> 100 µM (inactive)	> 100 µM (inactive)	54.5 µM (inactive)	> 100 µM (inactive)	> 100 µM (inactive)	> 100 µM (inactive)
CC1C(OC2O[C@@H]3O[C@@]4(C)CC[C@H]5[C@H](C)CC[C@@H](C2C)[C@@]35O4)O[C@@H]2O[C@@]3(C)CC[C@H]4[C@H](C)CC[C@@H]1[C@@]24O3 (some centres undefined)	> 50 µM (inactive)	> 50 µM (inactive)	> 50 µM (inactive)	> 50 µM (inactive)	19.3 µM (inactive)	> 50 µM (inactive)	> 50 µM (inactive)	> 50 µM (inactive)	> 50 µM (inactive)	> 50 µM (inactive)	> 50 µM (inactive)	> 50 µM (inactive)	> 50 µM (inactive)	> 50 µM (inactive)	1.65 µM (inactive)	> 50 µM (inactive)	–	> 50 µM (inactive)	> 50 µM (inactive)	–
NC(CSCc1ccccc1)C(=O)O (centres undefined)	> 100 µM (inactive)	> 100 µM (inactive)	> 100 µM (inactive)	> 100 µM (inactive)	> 100 µM (inactive)	> 100 µM (inactive)	> 100 µM (inactive)	> 100 µM (inactive)	–	> 100 µM (inactive)	> 100 µM (inactive)	> 100 µM (inactive)	> 100 µM (inactive)	> 100 µM (inactive)	> 100 µM (inactive)	> 100 µM (inactive)	> 100 µM (inactive)	> 100 µM (inactive)	> 100 µM (inactive)	> 100 µM (inactive)
O=[N+]([O-])C1(C2([N+](=O)[O-])CCCC2)CCCC1	> 100 µM (inactive)	> 100 µM (inactive)	> 100 µM (inactive)	> 100 µM (inactive)	50.7 µM (inactive)	> 100 µM (inactive)	> 100 µM (inactive)	> 100 µM (inactive)	> 100 µM (inactive)	> 100 µM (inactive)	> 100 µM (inactive)	> 100 µM (inactive)	> 100 µM (inactive)	> 100 µM (inactive)	–	> 100 µM (inactive)	> 100 µM (inactive)	> 100 µM (inactive)	> 100 µM (inactive)	57.1 µM (inactive)
